From patent US9187465B2, “Oxazole tyrosine kinase inhibitors” (Sareum Limited, priority 2007, dated 2015)

Experiments:
Format in all cases: biochemical
human FLT3 = target: T1, human FLT3 (Homo sapiens, UniProt P36888); test: FLT3 kinase assay (DELFIA enzyme inhibition)
T1 construct: a construct expressing the human FLT3 (564-993) with an amino terminal GST tag; host or cells: Sf9 insect cells (baculovirus)
T1 sequence (P36888 564-993): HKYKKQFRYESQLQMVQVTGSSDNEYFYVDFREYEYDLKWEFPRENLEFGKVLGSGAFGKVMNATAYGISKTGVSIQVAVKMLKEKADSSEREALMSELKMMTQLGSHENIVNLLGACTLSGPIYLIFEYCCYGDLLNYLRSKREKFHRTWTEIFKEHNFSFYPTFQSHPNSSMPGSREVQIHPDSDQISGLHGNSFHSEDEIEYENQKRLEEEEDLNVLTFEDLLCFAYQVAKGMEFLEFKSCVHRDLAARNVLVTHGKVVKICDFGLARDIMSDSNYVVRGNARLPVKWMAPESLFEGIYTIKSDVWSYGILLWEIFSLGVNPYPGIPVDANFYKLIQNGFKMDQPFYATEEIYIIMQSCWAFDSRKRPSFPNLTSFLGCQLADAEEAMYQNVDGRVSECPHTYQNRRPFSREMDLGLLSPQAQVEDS
Description: A GST-kinase fusion protein of 70 KDa was produced using sf9 baculovirus expression system, with a construct expressing the human FLT3 (564-993) with an amino terminal GST tag. The protein was purified by one-step affinity chromatography using glutathione-agarose.
FLT3 enzyme activity is determined using a Dissociation Enhanced Lanthanide Fluorescent Immunoassay (DELFIA) with a peptide substrate derived from the Gastrin Precursor (Tyr 87) peptide […] with a core sequence: EAYGW.
The amount of phosphorylated peptide produced is detected by means of a phospho-Tyrosine specific Europium-labelled antibody using Time-Resolved Fluorescence at Excitation 360-35 nm and Emission 620-35 nm.
Assay reactions are set up in a 25 uL final volume on a 96 well plate. […] The reaction is allowed to proceed for 30 minutes at room temperature before stopping with 100 μL Stop solution comprising of 100 mM EDTA, 1×BSA blocker in TBS (Perbio) and 0.05% Surfact-Amps20 (Perbio).
The stopped reaction is transferred to a black 96-well Neutravidin-coated plate (Perbio) and incubated for 30 minutes to capture the biotinylated peptide substrate. After washing wells 3 times with 200 uL TBS/T buffer, Anti-Phospho-Tyr-100 antibody labelled with Eu—N1 (Perkin Elmer AD0159) is added to all wells for 60 minutes at room temperature. After a repeat washing step, DELFIA Enhancement solution (Perkin Elmer) is added to all wells for 5 minutes and the fluorescence measured on a plate reader Analyst HT (Molecular Devices).
The % inhibition of the activity is calculated and plotted in order to determine the concentration of test compound required to inhibit 50% of the enzyme activity (IC50).

human Aurora A = target: T2, human Aurora A (Homo sapiens, UniProt O14965); test: Aurora A kinase assay (DELFIA enzyme inhibition); details: read-out: Aurora A IC50
T2 construct: Histidine tag (N); host or cells: Sf9 insect cells (baculovirus)
T2 sequence (O14965 1-403): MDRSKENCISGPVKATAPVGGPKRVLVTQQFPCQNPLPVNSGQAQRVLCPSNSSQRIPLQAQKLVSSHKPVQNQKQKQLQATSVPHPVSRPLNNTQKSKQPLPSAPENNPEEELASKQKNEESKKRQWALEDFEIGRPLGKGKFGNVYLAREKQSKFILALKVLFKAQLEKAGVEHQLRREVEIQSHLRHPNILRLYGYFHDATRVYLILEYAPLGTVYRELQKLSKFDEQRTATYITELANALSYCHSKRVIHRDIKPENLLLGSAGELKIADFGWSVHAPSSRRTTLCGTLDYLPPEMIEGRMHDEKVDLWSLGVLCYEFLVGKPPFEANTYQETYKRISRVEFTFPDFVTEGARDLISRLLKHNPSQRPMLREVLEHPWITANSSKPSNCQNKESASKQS
In short: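 DELFIA read-out (time-resolved Eu fluorescence, 620 nm emission) after Neutravidin capture of biotinylated peptide substrate and antibody detection. Reaction: Ni-agarose-purified Aurora A, 30 min at room temperature, stopped with 100 mM EDTA.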

human FLT4 = target: T3, human FLT4 (Homo sapiens, UniProt P35916); test: FLT4 kinase assay (DELFIA enzyme inhibition); details: read-out: FLT4 IC50
T3 construct: a construct expressing the human FLT4 (789-1207) with an amino terminal GST tag; host or cells: Sf9 insect cells (baculovirus)
T3 sequence (P35916 789-1207): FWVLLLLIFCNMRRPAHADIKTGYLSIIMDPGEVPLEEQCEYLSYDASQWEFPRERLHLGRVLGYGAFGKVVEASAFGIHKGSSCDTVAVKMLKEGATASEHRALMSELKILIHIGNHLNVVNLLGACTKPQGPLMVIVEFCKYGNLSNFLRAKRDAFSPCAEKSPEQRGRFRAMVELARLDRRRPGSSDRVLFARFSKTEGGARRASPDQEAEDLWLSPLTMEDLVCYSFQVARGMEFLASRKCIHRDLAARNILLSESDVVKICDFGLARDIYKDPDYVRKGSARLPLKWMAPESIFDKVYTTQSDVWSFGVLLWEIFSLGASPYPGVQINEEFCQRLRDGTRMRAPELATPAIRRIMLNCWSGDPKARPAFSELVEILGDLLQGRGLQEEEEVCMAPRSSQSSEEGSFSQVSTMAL
In short: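 Read-out is DELFIA: biotinylated MET Tyr1253-derived peptide captured on Neutravidin, phosphotyrosine detected by Eu-antibody time-resolved fluorescence. Enzyme is Sf9-expressed GST-FLT4 (789-1207), reacting 30 min at room temperature before EDTA stop. IC50 derived from plotted % inhibition.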

Row | SMILES | IC50 (human FLT3) | IC50 (human Aurora A) | IC50 (human FLT4)
1 | COc1ccc(-c2nc(-c3c[nH]c4ccc(OC)cc34)[nH]c2C(N)=O)cc1 [Example B-2, 2-(5-methoxy-1H-indol-3-yl)-4-(4-methoxyphenyl)-1H-imidazole-5-carboxamide] | < 10 µM | < 100 µM | < 10 µM
2 | COc1ccc(-c2oc(-c3c[nH]c4ccccc34)nc2C(N)=O)cc1 [Example E-3, 2-(1H-indol-3-yl)-5-(4-methoxyphenyl)oxazole-4-carboxamide] | < 100 µM | < 100 µM | < 10 µM
3 | NC(=O)c1nc(-c2c[nH]c3ccccc23)oc1-c1cccs1 [Example E-4, 2-(1H-indol-3-yl)-5-(thiophen-2-yl)oxazole-4-carboxamide] | < 100 µM | < 100 µM | < 10 µM
4 | NC(=O)c1nc(-c2c(F)cccc2F)oc1-c1ccccn1 [Example F-2, 2-(2,6-difluorophenyl)-5-(pyridin-2-yl)oxazole-4-carboxamide] | < 100 µM | – | < 100 µM
5 | CN(C)c1ccc(-c2oc(-c3c(F)cccc3F)nc2C(N)=O)cn1 [Example F-7, 2-(2,6-difluorophenyl)-5-(6-(dimethylamino)pyridin-3-yl)oxazole-4-carboxamide] | < 100 µM | – | < 10 µM
6 | NC(=O)c1nc(-c2c(F)cccc2F)oc1-c1cccnc1 [Example F-9, 2-(2,6-difluorophenyl)-5-(pyridin-3-yl)oxazole-4-carboxamideH] | < 100 µM | < 100 µM | < 10 µM
7 | CN1CCN(Cc2ccc(-c3oc(-c4c(F)cccc4F)nc3C(N)=O)cc2)CC1 [Example F-10, 2-(2,6-difluorophenyl)-5-(4-((4-methylpiperazin-1-yl)methyl)phenyl)oxazole-4-carboxamide] | < 100 µM | < 10 µM | < 10 µM
8 | CC(=O)N1CCN(Cc2ccc(-c3oc(-c4c(F)cccc4F)nc3C(N)=O)cc2)CC1 [Example F-11, 5-(4-((4-acetylpiperazin-1-yl)methyl)phenyl)-2-(2,6-difluorophenyl)oxazole-4-carboxamide] | < 100 µM | < 10 µM | < 10 µM
9 | NC(=O)c1nc(-c2c(F)cccc2F)oc1-c1ccc(COCCN2CCOCC2)cc1 [Example F-12, 2-(2,6-difluorophenyl)-5-(4-((2-morpholinoethoxy)methyl)phenyl)oxazole-4-carboxamide] | < 100 µM | < 10 µM | < 10 µM
10 | NC(=O)c1nc(-c2c(F)cccc2F)oc1-c1ccc(OCCN2CCCCC2)cc1 [Example F-14, 2-(2,6-difluorophenyl)-5-(4-(2-(piperidin-1-yl)ethoxy)phenyl)oxazole-4-carboxamide] | < 10 µM | < 10 µM | < 10 µM
11 | CN(C)CCOc1ccc(-c2oc(-c3c(F)cccc3F)nc2C(N)=O)cc1 [Example F-15, 2-(2,6-difluorophenyl)-5-(4-(2-(dimethylamino)ethoxy)phenyl)oxazole-4-carboxamide] | < 10 µM | < 10 µM | < 10 µM
12 | NCc1ccc(-c2oc(-c3c(F)cccc3F)nc2C(N)=O)cc1 [Example F-16, 5-(4-(aminomethyl)phenyl)-2-(2,6-difluorophenyl)oxazole-4-carboxamide] | < 100 µM | < 10 µM | < 10 µM
13 | NC(=O)c1nc(-c2c(F)cccc2F)oc1-c1ccc(N2CCOCC2)nc1 [Example F-19, 2-(2,6-difluorophenyl)-5-(6-morpholinopyridin-3-yl)oxazole-4-carboxamide] | < 100 µM | – | < 100 µM
14 | NC(=O)c1nc(-c2c(F)cccc2F)oc1-c1ccc(N)cc1 [Example F-22, 5-(4-aminophenyl)-2-(2,6-difluorophenyl)oxazole-4-carboxamide] | < 10 µM | < 10 µM | < 10 µM
15 | NC(=O)c1nc(-c2c(F)cccc2Cl)oc1-c1ccc(OCCN2CCCCC2)cc1 [Example F-24, 2-(2-chloro-6-fluorophenyl)-5-(4-(2-(piperidin-1-yl)ethoxy)phenyl)oxazole-4-carboxamide] | < 10 µM | < 10 µM | < 10 µM
16 | NC(=O)c1nc(-c2c(Cl)cccc2Cl)oc1-c1ccc(OCCN2CCCCC2)cc1 [Example F-25, 2-(2,6-dichlorophenyl)-5-(4-(2-(piperidin-1-yl)ethoxy)phenyl)oxazole-4-carboxamide] | < 10 µM | < 10 µM | < 10 µM

The remaining lines, values ahead:

Row | IC50 (human FLT3) | IC50 (human Aurora A) | IC50 (human FLT4) | SMILES
17 | < 10 µM | < 10 µM | < 10 µM | NC(=O)c1nc(-c2ccccc2F)oc1-c1ccc(OCCN2CCCCC2)cc1 [Example F-26, 2-(2-fluorophenyl)-5-(4-(2-(piperidin-1-yl)ethoxy)phenyl)oxazole-4-carboxamide]
18 | < 10 µM | < 10 µM | < 10 µM | NC(=O)c1nc(-c2ccccc2F)oc1-c1ccc(OCCN2CCOCC2)cc1 [Example F-27, 2-(2-fluorophenyl)-5-(4-(2-morpholinoethoxy)phenyl)oxazole-4-carboxamide]
19 | < 100 µM | – | < 10 µM | COc1ccc(-c2oc(-c3ccccc3)nc2C(N)=O)cc1 [Example M-2, 5-(4-methoxyphenyl)-2-phenyloxazole-4-carboxamide]
20 | < 100 µM | – | < 100 µM | COc1ccc(-c2oc(-c3ccc(C#N)cc3)nc2C(N)=O)cc1 [Example M-9, 2-(4-cyanophenyl)-5-(4-methoxyphenyl)oxazole-4-carboxamide]
21 | < 100 µM | – | – | COc1ccc(-c2oc(-c3ccc(S(C)(=O)=O)cc3)nc2C(N)=O)cc1 [Example M-11, 5-(4-methoxyphenyl)-2-(4-(methylsulfonyl)phenyl)oxazole-4-carboxamide]
22 | < 100 µM | – | < 10 µM | COc1ccc(-c2oc(-c3cccc(NC(C)=O)c3)nc2C(N)=O)cc1 [Example N-3, 2-(3-acetamidophenyl)-5-(4-methoxyphenyl)oxazole-4-carboxamide]
23 | < 100 µM | < 100 µM | – | COc1ccc(-c2oc(-c3cccc(C(F)(F)F)c3)nc2C(N)=O)cc1 [Example N-8, 5-(4-methoxyphenyl)-2-(3-(trifluoromethyl)phenyl)oxazole-4-carboxamide]
24 | < 10 µM | – | < 10 µM | COc1ccc(Nc2oc(-c3c(F)cccc3F)nc2C(N)=O)cc1 [Example P-1, 2-(2,6-difluorophenyl)-5-(4-methoxyphenylamino)oxazole-4-carboxamide]
25 | < 10 µM | < 10 µM | – | NC(=O)c1nc(-c2c(F)cccc2F)oc1Nc1ccc(N2CCOCC2)cc1 [Example Q-1, 2-(2,6-difluorophenyl)-5-(4-morpholinophenylamino)oxazole-4-carboxamide]
26 | < 10 µM | < 100 µM | – | COc1ccc(-c2oc(Nc3cccc(OC)c3)nc2C(N)=O)cc1 [Example R-3, 5-(4-methoxyphenyl)-2-(3-methoxyphenylamino)oxazole-4-carboxamide]
27 | < 100 µM | < 100 µM | – | CN1CCN(CCOc2ccc(-c3oc(-c4c(F)cccc4N4CCN(C)CC4)nc3C(N)=O)cc2)CC1 [Example S-2, 2-(2-fluoro-6-(4-methylpiperazin-1-yl)phenyl)-5-(4-(2-(4-methylpiperazin-1-yl)ethoxy)phenyl)oxazole-4-carboxamide]
